“And” between values parts separate entries of the source, which are not always exact repeats. Identical values can stand only once. The source made the active and inactive calls.
Key:
Type in all cases: functional
[1] = biological target: Serine/threonine-protein kinase pim-1 (Homo sapiens, UniProt P11309)
[2] = biological target: Cell division cycle 7-related protein kinase (Homo sapiens, UniProt O00311);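 also: value obtained from a kinome-wide kinase panel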
[3] = biological target: cAMP-dependent protein kinase catalytic subunit alpha (Homo sapiens, UniProt P17612)
[4] = biological target: Glycogen synthase kinase-3 beta (Homo sapiens, UniProt P49841);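 also: value comes from a broad kinome profiling panel, with GSK3B as the panel member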
Sequence of Glycogen synthase kinase-3 beta (P49841 whole entry): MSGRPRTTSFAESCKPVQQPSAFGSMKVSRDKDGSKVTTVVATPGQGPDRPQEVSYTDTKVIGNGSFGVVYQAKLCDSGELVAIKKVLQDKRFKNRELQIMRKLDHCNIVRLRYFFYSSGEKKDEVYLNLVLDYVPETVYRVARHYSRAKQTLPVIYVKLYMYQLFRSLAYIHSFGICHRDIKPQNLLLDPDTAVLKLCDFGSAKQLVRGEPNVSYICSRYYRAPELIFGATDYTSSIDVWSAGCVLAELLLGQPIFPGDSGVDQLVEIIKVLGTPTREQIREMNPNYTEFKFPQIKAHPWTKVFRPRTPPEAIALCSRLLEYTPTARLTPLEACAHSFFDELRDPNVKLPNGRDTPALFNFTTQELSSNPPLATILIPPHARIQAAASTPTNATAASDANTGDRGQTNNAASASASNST

[5] = biological target: Dual specificity protein kinase CLK4 (Homo sapiens, UniProt Q9HAZ1)
Sequence of Dual specificity protein kinase CLK4 (Q9HAZ1 whole entry): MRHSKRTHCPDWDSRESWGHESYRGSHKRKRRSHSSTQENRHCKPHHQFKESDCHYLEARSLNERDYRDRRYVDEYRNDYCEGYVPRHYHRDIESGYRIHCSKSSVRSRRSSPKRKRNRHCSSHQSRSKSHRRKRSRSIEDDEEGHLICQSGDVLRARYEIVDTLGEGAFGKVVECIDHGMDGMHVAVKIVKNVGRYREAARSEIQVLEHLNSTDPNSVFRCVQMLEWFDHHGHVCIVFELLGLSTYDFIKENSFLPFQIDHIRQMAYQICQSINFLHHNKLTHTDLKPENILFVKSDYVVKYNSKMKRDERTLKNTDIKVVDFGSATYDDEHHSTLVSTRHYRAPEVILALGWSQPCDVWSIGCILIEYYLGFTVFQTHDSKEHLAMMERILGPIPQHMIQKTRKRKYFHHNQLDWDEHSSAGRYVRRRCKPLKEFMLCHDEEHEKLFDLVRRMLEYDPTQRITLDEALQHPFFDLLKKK

[6] = biological target: Mitogen-activated protein kinase kinase kinase kinase 4 (Homo sapiens, UniProt O95819)
Sequence of Mitogen-activated protein kinase kinase kinase kinase 4 (O95819 whole entry): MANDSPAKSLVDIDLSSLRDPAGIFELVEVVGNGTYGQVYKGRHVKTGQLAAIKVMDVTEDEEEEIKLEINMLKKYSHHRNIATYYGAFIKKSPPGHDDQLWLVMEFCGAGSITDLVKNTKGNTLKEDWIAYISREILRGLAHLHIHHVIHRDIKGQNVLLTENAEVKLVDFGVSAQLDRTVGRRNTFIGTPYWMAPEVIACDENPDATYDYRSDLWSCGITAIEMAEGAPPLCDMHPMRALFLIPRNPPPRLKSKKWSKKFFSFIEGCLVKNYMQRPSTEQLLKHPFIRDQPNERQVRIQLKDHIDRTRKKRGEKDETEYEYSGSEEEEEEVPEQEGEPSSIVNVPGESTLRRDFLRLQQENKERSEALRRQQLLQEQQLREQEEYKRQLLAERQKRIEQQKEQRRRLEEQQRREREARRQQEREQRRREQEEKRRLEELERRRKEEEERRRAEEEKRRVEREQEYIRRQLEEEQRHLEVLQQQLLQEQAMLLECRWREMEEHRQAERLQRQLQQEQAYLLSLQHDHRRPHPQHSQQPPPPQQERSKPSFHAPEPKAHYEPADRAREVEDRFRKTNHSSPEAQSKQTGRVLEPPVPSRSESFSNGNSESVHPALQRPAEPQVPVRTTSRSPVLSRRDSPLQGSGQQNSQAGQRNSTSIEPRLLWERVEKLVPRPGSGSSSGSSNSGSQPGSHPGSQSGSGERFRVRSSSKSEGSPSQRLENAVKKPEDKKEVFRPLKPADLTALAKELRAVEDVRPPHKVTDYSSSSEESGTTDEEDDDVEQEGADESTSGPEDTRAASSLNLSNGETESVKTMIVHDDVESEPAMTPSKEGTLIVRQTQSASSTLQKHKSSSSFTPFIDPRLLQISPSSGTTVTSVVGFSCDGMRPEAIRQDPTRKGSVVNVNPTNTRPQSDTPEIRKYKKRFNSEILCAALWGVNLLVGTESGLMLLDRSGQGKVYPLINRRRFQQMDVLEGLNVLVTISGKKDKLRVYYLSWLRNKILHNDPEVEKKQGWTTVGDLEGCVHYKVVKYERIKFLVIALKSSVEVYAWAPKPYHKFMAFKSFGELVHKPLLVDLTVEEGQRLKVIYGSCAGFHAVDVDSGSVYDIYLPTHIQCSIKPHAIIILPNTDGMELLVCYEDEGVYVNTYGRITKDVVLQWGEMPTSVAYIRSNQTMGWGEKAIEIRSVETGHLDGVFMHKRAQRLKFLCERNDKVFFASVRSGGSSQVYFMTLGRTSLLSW

[7] = biological target: Interleukin-1 receptor-associated kinase 4 (Homo sapiens, UniProt Q9NWZ3)
Sequence of Interleukin-1 receptor-associated kinase 4 (Q9NWZ3 whole entry): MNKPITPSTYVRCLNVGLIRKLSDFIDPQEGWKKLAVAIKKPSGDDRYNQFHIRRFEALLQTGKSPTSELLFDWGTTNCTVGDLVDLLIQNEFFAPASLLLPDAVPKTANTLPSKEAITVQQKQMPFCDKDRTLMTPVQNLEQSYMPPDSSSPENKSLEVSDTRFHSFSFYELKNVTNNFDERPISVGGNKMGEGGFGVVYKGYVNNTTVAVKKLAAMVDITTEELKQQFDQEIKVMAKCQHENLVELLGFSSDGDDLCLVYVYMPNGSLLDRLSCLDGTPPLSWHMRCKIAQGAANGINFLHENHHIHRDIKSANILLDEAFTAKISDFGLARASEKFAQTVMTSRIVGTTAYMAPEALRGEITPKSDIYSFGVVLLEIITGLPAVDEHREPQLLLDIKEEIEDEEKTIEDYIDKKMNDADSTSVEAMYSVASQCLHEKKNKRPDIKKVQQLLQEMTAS

[8] = biological target: Homeodomain-interacting protein kinase 2 (Homo sapiens, UniProt Q9H2X6);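 also: measured within a kinome-wide kinase profiling panel, HIPK2 being one panel member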
[9] = biological target: Scavenger receptor class B member 1 (Mus musculus, UniProt Q61009); assay: inhibitors of SR-BI-mediated HDL uptake, dose response, cell-based, ldlA[mSR-BI] CHO, DiI fluorescence, dry powder, set 10 (AID 624029)
[10] = biological target: Protein disulfide-isomerase (Homo sapiens, UniProt P07237); assay: PDI inhibitors, insulin aggregation turbidity, dose response, biochemical, absorbance, cherry-picked samples (AID 602350)
Sequence of Protein disulfide-isomerase (P07237 whole entry): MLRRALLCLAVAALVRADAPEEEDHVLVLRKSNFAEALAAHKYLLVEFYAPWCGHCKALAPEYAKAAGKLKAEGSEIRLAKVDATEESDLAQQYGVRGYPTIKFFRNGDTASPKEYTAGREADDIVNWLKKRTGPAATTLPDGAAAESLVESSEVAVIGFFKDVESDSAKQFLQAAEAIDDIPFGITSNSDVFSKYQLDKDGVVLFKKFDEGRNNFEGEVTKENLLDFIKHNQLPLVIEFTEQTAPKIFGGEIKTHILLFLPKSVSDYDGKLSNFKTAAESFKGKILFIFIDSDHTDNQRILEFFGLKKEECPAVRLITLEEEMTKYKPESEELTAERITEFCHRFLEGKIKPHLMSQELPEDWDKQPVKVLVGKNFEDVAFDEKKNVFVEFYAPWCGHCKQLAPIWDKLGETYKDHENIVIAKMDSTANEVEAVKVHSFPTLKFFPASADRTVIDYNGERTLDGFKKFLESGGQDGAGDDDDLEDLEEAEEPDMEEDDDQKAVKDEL

[11] = biological target: Melanin-concentrating hormone receptor 1 (Homo sapiens, UniProt Q99705); assay: Late-stage fluorescence-based counterscreen for antagonists of the G-protein coupled receptor 7 (GPR7): cell-based dose response assay to identify antagonists of the melanin-concentrating hormone receptor 1 (MCHR1) Set 5.
Sequence of Melanin-concentrating hormone receptor 1 (Q99705 whole entry): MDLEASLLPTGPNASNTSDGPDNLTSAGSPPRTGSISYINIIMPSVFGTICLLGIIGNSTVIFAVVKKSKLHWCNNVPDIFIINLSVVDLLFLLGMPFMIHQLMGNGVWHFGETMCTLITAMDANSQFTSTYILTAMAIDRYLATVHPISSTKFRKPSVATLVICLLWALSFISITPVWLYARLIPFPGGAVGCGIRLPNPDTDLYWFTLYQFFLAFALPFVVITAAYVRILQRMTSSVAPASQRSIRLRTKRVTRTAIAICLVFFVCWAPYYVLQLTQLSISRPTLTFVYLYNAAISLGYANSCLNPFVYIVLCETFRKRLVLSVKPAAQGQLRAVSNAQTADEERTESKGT

[12] = biological target: Neuropeptides B/W receptor type 1 (Homo sapiens, UniProt P48145); assay: GPR7 antagonist potency, late-stage follow-up, cell-based, fluorescence, dose response, set 5 (AID 588566)
[13] = biological target: Cyclin-dependent kinase 19 (Homo sapiens, UniProt Q9BWU1); assay: Navigating the Kinome. Panel member name: CDC2L6
[14] = biological target: Cyclin-dependent kinase 8 (Homo sapiens, UniProt P49336); assay: Navigating the Kinome. Panel member name: CDK8
Sequence of Cyclin-dependent kinase 8 (P49336 whole entry): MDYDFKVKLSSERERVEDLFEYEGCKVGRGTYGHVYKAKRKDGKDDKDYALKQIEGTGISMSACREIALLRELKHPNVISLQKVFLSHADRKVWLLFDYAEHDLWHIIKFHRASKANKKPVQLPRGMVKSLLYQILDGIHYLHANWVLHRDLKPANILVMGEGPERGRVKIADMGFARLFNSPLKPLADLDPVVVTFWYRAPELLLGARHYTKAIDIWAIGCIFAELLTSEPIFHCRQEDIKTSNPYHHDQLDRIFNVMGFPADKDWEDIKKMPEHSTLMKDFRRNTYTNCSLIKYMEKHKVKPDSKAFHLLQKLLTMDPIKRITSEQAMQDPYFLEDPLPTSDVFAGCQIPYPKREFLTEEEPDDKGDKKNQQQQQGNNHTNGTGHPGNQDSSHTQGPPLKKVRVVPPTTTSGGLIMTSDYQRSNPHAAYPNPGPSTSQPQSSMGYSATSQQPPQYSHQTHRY

[15] = biological target: T1, Sentrin-specific protease 8 (Homo sapiens, UniProt Q96LD8); assay: SENP8 protease inhibitors, SAR follow-up, biochemical, luminescence, set 2 (AID 588601)
T1 sequence (Q96LD8 whole entry): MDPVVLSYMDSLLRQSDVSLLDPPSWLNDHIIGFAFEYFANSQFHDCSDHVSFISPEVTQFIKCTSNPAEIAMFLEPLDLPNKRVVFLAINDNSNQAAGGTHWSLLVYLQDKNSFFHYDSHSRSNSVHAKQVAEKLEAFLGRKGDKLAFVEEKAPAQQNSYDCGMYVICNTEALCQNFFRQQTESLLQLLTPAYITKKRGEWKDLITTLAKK

[16] = biological target: T2, Sentrin-specific protease 6 (Homo sapiens, UniProt Q9GZR1); assay: SENP6 protease inhibitors, SAR follow-up, biochemical, luminescence, set 2 (AID 588598)
T2 sequence (Q9GZR1 whole entry): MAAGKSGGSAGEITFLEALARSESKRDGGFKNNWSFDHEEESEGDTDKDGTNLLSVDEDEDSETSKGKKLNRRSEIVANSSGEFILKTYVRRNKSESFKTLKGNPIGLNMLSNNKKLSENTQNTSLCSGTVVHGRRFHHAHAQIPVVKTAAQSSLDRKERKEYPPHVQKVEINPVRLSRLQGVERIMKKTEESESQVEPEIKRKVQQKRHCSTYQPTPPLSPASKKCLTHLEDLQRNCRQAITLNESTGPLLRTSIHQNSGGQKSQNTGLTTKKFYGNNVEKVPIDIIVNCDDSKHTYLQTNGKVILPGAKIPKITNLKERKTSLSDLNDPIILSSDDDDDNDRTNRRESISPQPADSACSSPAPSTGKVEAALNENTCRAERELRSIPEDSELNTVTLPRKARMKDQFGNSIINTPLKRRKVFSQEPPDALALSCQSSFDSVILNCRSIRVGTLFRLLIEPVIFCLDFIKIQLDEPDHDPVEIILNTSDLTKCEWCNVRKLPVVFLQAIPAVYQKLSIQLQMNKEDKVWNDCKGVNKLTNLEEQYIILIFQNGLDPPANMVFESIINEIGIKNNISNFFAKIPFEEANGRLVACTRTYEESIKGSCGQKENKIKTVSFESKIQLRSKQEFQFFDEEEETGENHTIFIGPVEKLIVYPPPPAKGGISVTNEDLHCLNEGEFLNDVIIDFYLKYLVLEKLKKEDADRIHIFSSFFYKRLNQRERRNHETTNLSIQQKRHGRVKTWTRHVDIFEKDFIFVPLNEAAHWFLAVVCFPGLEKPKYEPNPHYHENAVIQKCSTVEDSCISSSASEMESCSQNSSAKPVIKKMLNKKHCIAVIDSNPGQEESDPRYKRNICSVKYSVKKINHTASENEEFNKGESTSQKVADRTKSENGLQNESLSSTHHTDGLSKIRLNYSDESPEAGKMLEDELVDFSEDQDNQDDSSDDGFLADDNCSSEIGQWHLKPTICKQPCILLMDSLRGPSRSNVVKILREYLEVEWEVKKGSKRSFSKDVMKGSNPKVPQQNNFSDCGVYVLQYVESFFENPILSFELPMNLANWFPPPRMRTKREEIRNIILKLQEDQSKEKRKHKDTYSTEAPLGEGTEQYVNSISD

Caspase-3 = biological target: T3, Caspase-3 (Homo sapiens, UniProt P42574); assay: caspase-3 inhibitors as off-family protease, SAR follow-up, selectivity assay for SENP protease inhibitor project, biochemical, luminescence, set 2 (AID 588599)
T3 sequence (P42574 whole entry): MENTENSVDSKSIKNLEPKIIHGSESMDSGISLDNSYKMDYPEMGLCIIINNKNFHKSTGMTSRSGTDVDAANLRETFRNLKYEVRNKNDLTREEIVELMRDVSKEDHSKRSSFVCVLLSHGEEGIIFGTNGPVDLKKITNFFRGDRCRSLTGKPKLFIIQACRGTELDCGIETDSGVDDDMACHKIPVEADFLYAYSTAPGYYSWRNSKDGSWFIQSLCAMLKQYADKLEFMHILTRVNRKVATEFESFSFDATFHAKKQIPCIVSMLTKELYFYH

[17] = biological target: T4, Sentrin-specific protease 7 (Homo sapiens, UniProt Q9BQF6); assay: SENP7 protease inhibitors, SAR follow-up, biochemical, luminescence, set 2 (AID 588600)
T4 sequence (Q9BQF6 whole entry): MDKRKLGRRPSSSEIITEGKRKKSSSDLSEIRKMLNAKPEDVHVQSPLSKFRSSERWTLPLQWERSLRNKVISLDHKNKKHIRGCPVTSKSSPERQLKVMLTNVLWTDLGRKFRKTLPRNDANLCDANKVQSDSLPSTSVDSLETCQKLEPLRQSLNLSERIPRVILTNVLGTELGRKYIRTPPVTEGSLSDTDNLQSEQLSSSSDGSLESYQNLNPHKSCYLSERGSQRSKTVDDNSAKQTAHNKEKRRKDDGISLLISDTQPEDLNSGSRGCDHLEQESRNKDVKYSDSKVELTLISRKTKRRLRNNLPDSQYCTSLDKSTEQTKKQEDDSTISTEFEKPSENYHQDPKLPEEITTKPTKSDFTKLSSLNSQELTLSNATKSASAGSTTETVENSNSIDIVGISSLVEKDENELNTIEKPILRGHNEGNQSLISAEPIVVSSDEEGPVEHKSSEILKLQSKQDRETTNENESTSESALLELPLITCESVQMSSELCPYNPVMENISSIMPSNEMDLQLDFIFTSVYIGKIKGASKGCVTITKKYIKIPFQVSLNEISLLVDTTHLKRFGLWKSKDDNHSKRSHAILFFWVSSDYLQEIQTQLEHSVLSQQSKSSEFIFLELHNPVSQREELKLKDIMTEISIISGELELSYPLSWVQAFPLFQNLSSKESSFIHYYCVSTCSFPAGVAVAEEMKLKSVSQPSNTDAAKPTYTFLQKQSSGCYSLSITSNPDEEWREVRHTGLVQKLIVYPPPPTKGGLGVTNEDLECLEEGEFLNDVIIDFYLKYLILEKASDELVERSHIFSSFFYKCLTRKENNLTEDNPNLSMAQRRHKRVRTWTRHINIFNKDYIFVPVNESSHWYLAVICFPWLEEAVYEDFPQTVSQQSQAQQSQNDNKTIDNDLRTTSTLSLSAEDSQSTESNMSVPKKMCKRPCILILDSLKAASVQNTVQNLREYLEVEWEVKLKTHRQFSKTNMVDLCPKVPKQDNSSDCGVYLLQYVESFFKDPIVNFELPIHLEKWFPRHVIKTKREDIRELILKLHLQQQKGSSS

Sequence of Serine/threonine-protein kinase pim-1 (P11309 whole entry): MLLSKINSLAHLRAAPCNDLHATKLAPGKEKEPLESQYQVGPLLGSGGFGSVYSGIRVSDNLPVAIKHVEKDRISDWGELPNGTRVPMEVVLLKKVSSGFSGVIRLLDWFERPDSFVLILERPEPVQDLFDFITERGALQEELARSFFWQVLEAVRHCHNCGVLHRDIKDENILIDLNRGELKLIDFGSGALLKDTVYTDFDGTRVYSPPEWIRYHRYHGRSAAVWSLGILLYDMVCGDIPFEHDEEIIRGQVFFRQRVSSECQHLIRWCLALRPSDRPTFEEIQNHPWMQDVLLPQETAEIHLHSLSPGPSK
Sequence of Cell division cycle 7-related protein kinase (O00311 whole entry): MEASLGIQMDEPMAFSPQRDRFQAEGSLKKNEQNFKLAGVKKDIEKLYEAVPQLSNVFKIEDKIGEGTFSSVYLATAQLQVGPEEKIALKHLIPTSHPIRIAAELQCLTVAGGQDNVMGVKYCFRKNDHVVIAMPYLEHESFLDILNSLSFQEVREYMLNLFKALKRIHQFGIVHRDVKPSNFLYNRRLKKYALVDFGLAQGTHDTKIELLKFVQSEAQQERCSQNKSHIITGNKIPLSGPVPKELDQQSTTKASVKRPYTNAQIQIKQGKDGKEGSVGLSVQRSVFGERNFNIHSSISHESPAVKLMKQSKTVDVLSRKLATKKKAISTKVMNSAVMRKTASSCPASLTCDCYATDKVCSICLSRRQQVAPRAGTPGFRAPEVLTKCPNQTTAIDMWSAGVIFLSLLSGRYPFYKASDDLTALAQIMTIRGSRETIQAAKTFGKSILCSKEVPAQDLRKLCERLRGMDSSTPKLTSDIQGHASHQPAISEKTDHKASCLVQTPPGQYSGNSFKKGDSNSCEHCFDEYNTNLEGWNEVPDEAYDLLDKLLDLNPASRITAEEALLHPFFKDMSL

## NC(=O)c1ccc(Nc2ncnc3[nH]cc(-c4ccccc4)c23)cc1
[1]
  Ki: 3.98 µM (active)
[2]
  Ki: 0.0126 µM (active)
[3]
  Ki: 2 µM (active)
[4]
  Ki: 0.158 µM (active)
[5]
  Ki: 0.01 µM (active)
[6]
  Ki: 0.0398 µM (active)
[7]
  Ki: 0.0631 µM (active)
[8]
  Ki: 0.2 µM (active)

## C[C@@H]1CN([C@H](C)CO)C(=O)c2cc(NC(=O)Cc3cn(C)c4ccccc34)ccc2O[C@H]1CN(C)S(=O)(=O)c1ccc(F)cc1
[9]
  AC50: 0.00202 µM (active)
[10]
  AC50: 1.26 µM (active) and 16.4 µM (active)

## CCOC(=O)C(c1ccccn1)c1c(Cl)cnn(Cc2cccc3ccccc23)c1=O (stereo not drawn)
[11]
  IC50: 17.6 µM (inactive)
[12]
  IC50: > 20 µM (inactive)

## Nc1nsc2cccc(C(=O)Nc3cccc(CNC(=O)Nc4cccc(F)c4)c3)c12
[13]
  Ki: > 100 µM (inactive)
[14]
  Ki: 3.98 µM (active)

## NS(=O)(=O)c1ccc(CCNC(=O)C(=O)c2c[nH]c3ccccc23)cc1
[15]
  IC50: > 99 µM (inactive)
[16]
  IC50: > 99 µM (inactive)
Caspase-3
  IC50: > 99 µM (inactive)
[17]
  IC50: > 99 µM (inactive)

Reference: ChEMBL document CHEMBL1201862, “PubChem BioAssay data set” (2004)
